Data as given in patent US8735406B2, “8-oxodihydropurine derivative” (Dainippon Sumitomo Pharma Co., Ltd., priority 2009, dated 2014).
Read-outs that look alike come from different tables or passages of the source.

Biological target: T1, FAAH (Rattus norvegicus, UniProt P97612)
T1 construct: Preparation of Rat Brain Membranes Preparations (FAAH Enzyme Solution); from tissue; host or cells: rat cerebrum (brain membrane preparation)
T1 sequence (P97612 1-579): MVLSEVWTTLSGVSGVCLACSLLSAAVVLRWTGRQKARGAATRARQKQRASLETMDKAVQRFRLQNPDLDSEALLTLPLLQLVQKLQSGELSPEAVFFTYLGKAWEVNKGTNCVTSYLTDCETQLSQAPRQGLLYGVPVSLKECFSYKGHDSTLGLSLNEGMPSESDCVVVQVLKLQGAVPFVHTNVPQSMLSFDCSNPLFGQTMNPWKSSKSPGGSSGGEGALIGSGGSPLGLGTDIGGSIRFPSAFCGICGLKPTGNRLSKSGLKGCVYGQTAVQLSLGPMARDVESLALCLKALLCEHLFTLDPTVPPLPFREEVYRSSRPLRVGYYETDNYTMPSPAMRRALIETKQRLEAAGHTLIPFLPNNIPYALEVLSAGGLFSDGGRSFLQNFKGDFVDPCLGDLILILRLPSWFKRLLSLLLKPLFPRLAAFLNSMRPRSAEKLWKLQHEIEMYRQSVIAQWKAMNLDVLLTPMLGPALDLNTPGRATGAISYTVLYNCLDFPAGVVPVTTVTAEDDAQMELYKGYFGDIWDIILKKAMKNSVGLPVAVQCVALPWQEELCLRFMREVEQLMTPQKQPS
Assay: Determination of FAAH inhibitory activity in rat (rat brain membrane preparations, [3H]-anandamide hydrolysis)
Format: biochemical
Conditions: for IC50: read-out: FAAH Inhibition IC50
Procedure, shortened: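 Compounds tested from 0.1 nM to 1 μM to derive IC50 against FAAH hydrolysis in rat brain membrane preparations (100 μg/mL). A 10-min 37 °C preincubation was followed by 10 min with [3H]-anandamide (2 nM) mixed with 2 μM unlabelled anandamide. Radioactive ethanolamine was extracted into the water/methanol layer and counted.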

[1] = rat brain membrane preparations, 100 nM test substance, read-out: FAAH Inhibition, Inhibition Rate at 100 nM
[2] = rat brain membrane preparations, test substance 0.1 nM to 1 μM
[3] = at 100 nM, rat brain membrane preparations, read-out: FAAH Inhibition Inhibition Rate at 100 nM
[4] = rat brain membrane preparations
[5] = read-out: FAAH Inhibition, Inhibition Rate at 100 nM

| SMILES | inhibition at 0.1 µM [1] [%] | IC50 [2] [nM] | inhibition at 0.1 µM [3] [%] | IC50 [4] [nM] | inhibition at 0.1 µM [5] [%] |
| --- | --- | --- | --- | --- | --- |
| Cn1c(=O)n(C(=O)N2CCCC2)c2cnc(-c3ccc(C(C)(C)C)cc3)nc21 [compound 185] | 58 | 89 |  |  |  |
| COCc1ncc2c(n1)n(C)c(=O)n2C(=O)N1CC(c2cccc(OC(F)(F)F)c2)C1 [compound 449] | 84 | 28 |  |  |  |
| CCN(C)C(=O)n1c(=O)n(C)c2nc(CC(C)(C)C)ncc21 [Example 160, 2-(2,2-Dimethylpropyl)-N-ethyl-N,9-dimethyl-8-oxo-8,9-dihydro-7H-purine-7-carboxamide] | 98 | 14 |  |  |  |
| COCCN(C)C(=O)n1c(=O)n(C)c2nc(-c3ccccc3)ncc21 [Example 39, N-(2-Methoxyethyl)-N,9-dimethyl-8-oxo-2-phenyl-8,9-dihydro-7H-purine-7-carboxamide] | 98 | 43 |  |  |  |
| CN(CCOc1ccc(Cl)cc1)C(=O)n1c(=O)n(C)c2nc(-c3ccncc3)ncc21 [Example 151, N-[2-(4-Chlorophenoxy)ethyl]-N,9-dimethyl-8-oxo-2-(pyridin-4-yl)-8,9-dihydro-7H-purine-7-carboxamide] | 102 | 0.5 |  |  |  |
| Cn1c(=O)n(C(=O)N2CCC2)c2cnc(COc3ccccc3Cl)nc21 [compound 409] | 63 | 96 |  |  |  |
| COCc1ncc2c(n1)n(C)c(=O)n2C(=O)N1CC(Oc2ccccc2C)C1 [Example 478] | 46 | 118 |  |  |  |
| CN(C)C(=O)n1c(=O)n(C)c2cnc(-c3ccc(C(F)(F)F)cc3Cl)nc21 [Example 339, 2-[2-Chloro-4-(trifluoromethyl)phenyl]-N,N,7-trimethyl-8-oxo-7,8-dihydro-9H-purine-9-carboxamide] | 80 | 7 |  |  |  |
| O=C(N1CCCC1)n1c(=O)n(CCN2CCCC2)c2nc(-c3ccccc3)ncc21 [Example 310] | 5 | > 100 |  |  |  |
| CN(C)C(=O)n1c(=O)n(C)c2cnc(CCc3cccc(Cl)c3)nc21 [compound 520] | 96 | 4 |  |  |  |
| CCn1c(=O)n(C(=O)N2CC(c3ccc(F)cc3)C2)c2cnc(COC)nc21 [Example 656, 9-Ethyl-7-{[3-(4-fluorophenyl)azetidin-1-yl]carbonyl}-2-(methoxymethyl)-7,9-dihydro-8H-purine-8-one] |  |  | 115 | 10 |  |
| Cn1c(=O)n(C(=O)N2CCCC2)c2cnc(-c3cccc(OCc4ccccc4)c3)nc21 [Example 202, 2-(3-benzyloxyphenyl)-9-methyl-7-(pyrrolidin-1-ylcarbonyl)-7,9-dihydro-8H-purine-8-one] | 53 | 95 |  |  |  |
| CN(C)C(=O)n1c(=O)n(C)c2nc(-c3cccnc3)ncc21 [Example 143, N,N,9-Trimethyl-8-oxo-2-(pyridin-3-yl)-8,9-dihydro-7H-purine-7-carboxamide] | 100 | 15 |  |  |  |
| COc1ccc(-c2ncc3c(n2)n(C)c(=O)n3C(=O)N2CCCC2)cn1 [Example 206, 2-(6-Methoxypyridin-3-yl)-9-methyl-7-(pyrrolidin-1-ylcarbonyl)-7,9-dihydro-8H-purine-8-one] | 98 | 4 |  |  |  |
| CN(C)C(=O)n1c(=O)n(C)c2cnc(-c3cccc(F)c3)nc21 [compound 323] | 57 | 77 |  |  |  |
| CCN(CC)C(=O)n1c(=O)n(C)c2nc(-c3cccc(OC)c3)ncc21 [Example 70] | 41 | > 100 |  |  |  |
| COCc1ncc2c(n1)n(C)c(=O)n2C(=O)N1CC(c2ccc(C(F)(F)F)cc2)C1 [compound 448] | 95 | 10 |  |  |  |
| Cc1cc(F)cc(-c2ncc3c(n2)n(C)c(=O)n3C(=O)N2CCCC2)c1 [Example 201, 2-(3-Fluoro-5-methylphenyl)-9-methyl-7-(pyrrolidin-1-ylcarbonyl)-7,9-dihydro-8H-purine-8-one] | 99 | 26 |  |  |  |
| CCCOc1ccc(CCc2ncc3c(n2)n(C(=O)N(C)C)c(=O)n3C)cc1 [compound 501] | 103 | 10 |  |  |  |
| Cn1c(=O)n(C(=O)N2CCCC2)c2nc(Cc3ccc(F)cc3)ncc21 [Example 295, 2-(4-Fluorobenzyl)-7-methyl-9-(pyrrolidin-1-ylcarbonyl)-7,9-dihydro-8H-purine-8-one] | 91 | 43 |  |  |  |

| SMILES | inhibition at 0.1 µM [1] [%] | IC50 [2] [nM] | inhibition at 0.1 µM [3] [%] | IC50 [4] [nM] | inhibition at 0.1 µM [5] [%] |
| --- | --- | --- | --- | --- | --- |
| COc1cccc(-c2ncc3c(n2)n(C)c(=O)n3C(=O)N2CCN(Cc3ccc(Cl)cc3)CC2)c1 [Example 86, 7-{[4-(4-Chlorobenzyl)piperazin-1-yl]carbonyl}-2-(3-methoxyphenyl)-9-methyl-7,9-dihydro-8H-purine-8-one] |  | 22 |  |  | 96 |
| Cn1c(=O)n(C(=O)N2CCCC2)c2cnc(CCc3cccc(F)c3)nc21 [compound 13] | 91 | 42 |  |  |  |
| Cc1ccc(OCc2ncc3c(n2)n(C(=O)N2CCC2)c(=O)n3C)cc1 [Example 424] | 80 | 26 |  |  |  |
| COc1ccc(CCN(C)C(=O)n2c(=O)n(C)c3nc(-c4cccc(OC)c4)ncc32)cc1 [Example 93, 2-(3-Methoxyphenyl)-N-[2-(4-methoxyphenyl)ethyl]-N,9-dimethyl-8-oxo-8,9-dihydro-7H-purine-7-carboxamide] |  | 5 |  |  | 100 |
| CN(C)C(=O)n1c(=O)n(C)c2cnc(-c3cccc(OC(F)(F)F)c3)nc21 [compound 319] | 95 | 18 |  |  |  |
| COc1cccc(-c2ncc3c(n2)n(C)c(=O)n3C(=O)N(C)CCc2nc(-c3ccccc3)no2)c1 [Example 104, 2-(3-Methoxyphenyl)-N,9-dimethyl-8-oxo-N-[2-(3-phenyl-1,2,4-oxadiazol-5-yl)ethyl]-8,9-dihydro-7H-purine-7-carboxamide] | 101 | 3 |  |  |  |
| Cn1c(=O)n(C(=O)N2CCCC2)c2cnc(-c3ccc(-c4ccccc4)cc3)nc21 [compound 179] | 97 | 44 |  |  |  |
| COc1cccc(CN(C)C(=O)n2c(=O)n(C)c3nc(-c4cccc(OC)c4)ncc32)c1 [Example 73, N-(3-Methoxybenzyl)-2-(3-methoxyphenyl)-N,9-dimethyl-8-oxo-8,9-dihydro-7H-purine-7-carboxamide] | 89 | 45 |  |  |  |
| CN(C)C(=O)n1c(=O)n(C)c2cnc(CCc3ccc(OC4CCCC4)cc3)nc21 [compound 532] | 96 | 13 |  |  |  |
| COc1cccc(Cc2ncc3c(n2)n(C(=O)N2CCCC2)c(=O)n3C)c1 [Example 288, 2-(3-Methoxybenzyl)-7-methyl-9-(pyrrolidin-1-ylcarbonyl)-7,9-dihydro-8H-purine-8-one] | 86 | 47 |  |  |  |
| CCOCc1ncc2c(n1)n(C)c(=O)n2C(=O)N1CC(c2ccc(F)cc2)C1 [compound 461] | 107 | 10 |  |  |  |
| COCc1ncc2c(n1)n(C)c(=O)n2C(=O)N1CC[C@H](Oc2ccc(F)cc2)C1 [Example 481] | 102 | 3 |  |  |  |
| COc1ccc(/C=C/c2ncc3c(n2)n(C(=O)N2CCCC2)c(=O)n3C)cc1 [compound 242] | 40 | > 100 |  |  |  |
| Cn1c(=O)n(C(=O)N2CCCC2)c2cnc(Cc3cc(F)cc(F)c3)nc21 [Example 270, 2-(3,5-Difluorobenzyl)-9-methyl-7-(pyrrolidin-1-ylcarbonyl)-7,9-dihydro-8H-purine-8-one] | 96 | 32 |  |  |  |
| CCOc1cccc(C2CN(C(=O)n3c(=O)n(C)c4nc(CCCOC)ncc43)C2)c1 [Example 387] | 92 | 22 |  |  |  |
| COc1cccc(-c2ncc3c(n2)n(C)c(=O)n3C(=O)N2CCCC2)c1F [Example 196, 2-(2-Fluoro-3-methoxyphenyl)-9-methyl-7-(pyrrolidin-1-ylcarbonyl)-7,9-dihydro-8H-purine-8-one] | 101 | 23 |  |  |  |
| CCn1c(=O)n(C(=O)N2CCC2)c2nc(CCc3ccc(F)cc3)ncc21 [Example 651, 9-(Azetidin-1-ylcarbonyl)-7-ethyl-2-[2-(4-fluorophenyl)ethyl]-7,9-dihydro-8H-purine-8-one] |  |  | 100 | 9 |  |
| COc1ccc(CCC2CCN(C(=O)n3c(=O)n(C)c4nc(-c5cccc(OC)c5)ncc43)CC2)cc1 [Example 118, 2-(3-Methoxyphenyl)-7-({4-[2-(4-methoxyphenyl)ethyl]piperidin-1-yl}carbonyl)-9-methyl-7,9-dihydro-8H-purine-8-one] | 103 | 5 |  |  |  |
| CCOc1ccc(C2CN(C(=O)n3c(=O)n(C)c4nc(COC)ncc43)C2)cc1 [compound 445] | 105 | 10 |  |  |  |
